Here are results for 5 compounds from US5688670A, “Self-modifying RNA molecules and methods of making” (The General Hospital Corporation, priority 1994, dated 1997).

Values joined by “and” are separate entries in the source; they are usually repeats but may differ in a detail not shown here. Equal values may be shown once.

For assay [1], the target named is ATP-40-1 RNA variant, base pair U18-A33 changed to C-G. The assay can be described thus: Kd of ATP aptamer variant. Type of assay: binding. Conditions: further decrease after raising Mg+2 to 20 mM. How it is done: (§1) Isocratic elution (Arnold et al., J. Chromatography 31:1, 1986) from ATP-agarose and equilibrium gel filtration (Fersht, in Enzyme Structure and Mechanism p. 186-188, Freeman, New York, 1985) was used to measure the dissociation constant for the RNA-ATP complex on the column and in solution. […] The Kd for the ATP-agarose complex is an upper estimate, because the fraction of bound ATP that is accessible to the RNA is not known. The solution Kd for adenosine was similar to that of ATP (5-8 μM), but the Kd for dATP was not measurable (>1 mM). The Kd of ATP-40-1 for its ligand dropped to 2 μM when the Mg^+2 concentration was raised from 5 to 20 mM. Changing the base pair U18-A33 to C-G, as found in most of the clones initially selected, further decreased the Kd to 0.7 μM. At almost saturating concentrations of ATP (50 μM), the RNA bound ~0.7 equivalents of ATP. The RNA likely binds its ligands with a stoichiometry of unit.

Assay [2] concerns the target ATP-40-1 RNA (40-nucleotide ATP aptamer). The assay can be described thus: isocratic elution from ATP-C8-agarose column. Type of assay: binding. The settings on record: upper estimate, 5 mM Mg. How it is done:
as §1

The target of assay [3] is Class I aptamer RNA (ATP aptamer region of Class I kinase ribozyme). The assay can be described thus: binding of kinase-class aptamer region RNA to C-8 linked ATP agarose. The settings on record: no detectable interaction with ATP agarose. From the text:
(§2) Either the right or left hand stems of the Class II, VI and VII aptamer regions appear to be missing, and it seems likely that these molecules have found novel modes of binding their substrates. Using run-off transcription of synthetic DNA oligonucleotides (Milligan and Uhlenbeck, Methods Enzymol. 180:51, 1989) the RNAs corresponding to the Class I, III, IV, and V aptamer regions were produced. The Class IV aptamer RNA binds weakly to C-8 linked ATP agarose (Sassanfar and Szostak, supra), consistent with a molecule having a Kd for ATP in the range of 0.05-0.5 mM. […] Presumably, the corresponding classes of kinases have developed novel modes of binding ATP-γ-S.

Assay [4] concerns the target Class III aptamer RNA (ATP aptamer region of Class III kinase ribozyme). Described as above. The settings on record: no detectable interaction with ATP agarose.
Description: as §2

In assay [5] the target is ATP-40-1 RNA (40-nucleotide ATP aptamer). The assay can be described thus: equilibrium gel filtration (solution Kd). It counts as binding. Here is the method:
as §1

Assay [6] deals with ATP-binding RNA clone 3 (C8-ATP-3, full-length 164-nucleotide RNA). The assay can be described thus: binding of individual eighth-cycle clones to ATP-agarose. The settings on record: read-out: dissociation constant (Kd). How it is done:
(§3) A chemically synthesized pool of DNA molecules containing a central region of 120 random nucleotides 5 flanked by constant regions used as primer binding sites was PCR-amplified and transcribed in vitro by T7 RNA polymerase in the presence of [α-^32 P][…]. RNA was ethanol-precipitated and unincorporated nucleotides removed by Sephadex-G50 chromatography. Following a brief incubation at 65° C. in binding buffer (300 mM NaCl, 20 Mm Tris, pH 7.6, 5 mM MgCl2), the RNA was cooled to room temperature before being loaded onto a 1-ml ATP agarose affinity column. […] After washing with 6 column-volumes of binding buffer, bound RNAs were eluted with 3 column-volumes of binding buffer containing 4 mM ATP, then concentrated by precipitation with ethanol. For the first three cycles, an agarose pre-column was used to prevent enrichment of the RNA pool with agarose-binding RNAs, and bound RNAs were eluted with 5 mM EDTA in water rather than affinity-eluted with ATP. After reverse transcription and PCR amplification, DNA templates were transcribed and the resulting RNA was used in the next round of selection. RNA from the eighth round of selection was converted to cDNA, amplified as double-stranded DNA by PCR, digested with EcoR1 and BamHl gel-purified and cloned into the phage M13 based vector pGem3Z (Promega, Madison, Wis.).
(§4) Thirty-nine clones from the eighth cycle RNA population were sequenced seventeen different sequences were found. Of these, the most abundant sequence (C8-ATP-3) occurred 14 times, and 12 sequences occurred just once. […] Clones 2, 3, 8, 15, and 19 were individually tested for binding to ATP-agarose.

The target in assay [7] is ATP-binding RNA clone 2 (C8-ATP series, eighth cycle RNA population). The assay is described as above. The settings on record: read-out: dissociation constant (Kd). Here is the method:
as §3, §4

For assay [8], the system named is ATP-binding RNA clone 15 (C8-ATP-15). The description is as above. How it is done:
as §3, §4

The target of assay [9] is ATP-binding RNA clone 8 (C8-ATP series, eighth cycle RNA population). Described as above. Conditions: read-out: dissociation constant (Kd). How it is done: as §3, §4
The target in assay [10] is ATP-binding RNA clone 19 (C8-ATP series, eighth cycle RNA population). Described as above. Conditions: read-out: dissociation constant (Kd). How it is done: as §3, §4
Assay [11] deals with polynucleotide kinase ribozyme Class III (Kin.42). The assay can be described thus: kinetic analysis of auto-thiophosphorylation by kinase ribozyme. Conditions: 6 ATP-γ-S concentrations. It counts as biochemical. How it is done:
(§5) Because the random pool initially prepared sampled sequence space very sparsely (there are between 4^100 and 10^60 possible 100-mers, but only approximately 10^16 different molecules in the pool), active molecules are likely to be sub-optimal catalysts. Accordingly, three cycles of mutagenic PCR (before selection cycles 7, 8, and 9) were performed to allow the evolution of improvements in the active molecules. Mutagenic PCR was performed as described by Bartel and Szostak (Science, 61:1411, 1993) and by Cadwell and Joyce (PCR Methods Appl., 28, 1992). Briefly, thirty total cycles of PCR were done at each round to yield - 2% mutagenesis. Reactions of pool RNAs were performed either with trace ATP-γ-^35 S, or with 100 μM ATP-γ-S plus additional trace ATP-γ-^35 S. Dithiothreitol (DTT, 10 mM) was included in the reactions. Reactions were quenched by the addition of one volume of 150 mM EDTA, 20 mM DTT in 95% formamide. Reactions were analyzed by electrophoresis on 10% polyacrylamide/8M urea gels. Quantitation was performed using a PhosphorImager (Molecular Dynamics). A known amount of ATP-γ-^35 S was spotted on the gels as a standard. The combined effect of increasing the stringency and performing mutagenic PCR was to increase the activity of the pool by nearly three orders of magnitude from cycle 6 to cycle 13 (FIG. 4).
(§6) Rates for each clone were determined (as described herein) at 6 different ATP-γ-S concentrations, ranging from 2 μM-[…].

Assay [12] relates to polynucleotide kinase ribozyme Class IV (Kin.44). Described as above. Type of assay: biochemical. Conditions: 6 ATP-γ-S concentrations. Here is the method: as §5, §6
For assay [13], the system named is polynucleotide kinase ribozyme Class II (Kin.25). Described as above. It counts as biochemical. Here is the method:
as §5, §6

Assay [14] deals with BL8-6 self-biotinylating ribozyme (SEQ ID NO: 91). The assay can be described thus: self-biotinylation time course. Type of assay: biochemical. Conditions: in the presence of 200 μM BIE. How it is done: The rate of self-biotinylation was determined by a time course experiment. ^32 P-labelled RNA was first resuspended in incubation buffer (100 mM KCl, 10 mM Na-Hepes, pH 7.4, 5 mM MgCl2) and allowed to equilibrate for 10 minutes at room temperature. 200 μM BIE was added to the mixture and aliquots were subsequently removed after 0 to 120 minutes of incubation. Samples were quenched and affinity purified as described in Haugland, Molecular Probes Handbook of Fluoprescent Probes and Research Chemicals. Aliquots were counted in a scintillation counter following ethanol precipitation (total RNA count) and following binding to streptavidin agarose (product RNA count); the ratio of these two counts is the fraction reacted. Optimizing enzymatic activity: It seemed likely that the original RNA pool from which the BL8-6 ribozyme was derived might not saturate the space of biotin-ligating ribozymes. To test the possibility that appropriate additional mutations to the BL8-6 sequence might increase its catalytic activity, a third RNA pool was generated based on its sequence but with non-wild-type nucleotides substituted at each position with 30% probability (FIG. 8D) (using methods described above). […] After eight rounds of selection (ending with a 1 minute incubation period at 10 μM BIE), active clones from the pool were sequenced and assayed for catalytic activity.

The subject of assay [15] is BL2.8-7 self-biotinylating ribozyme (re-selected from BL8-6). In words: self-biotinylation time course. It counts as biochemical. Here is the method:
The rate of self-biotinylation was determined by a time course experiment. ^32 P-labelled RNA was first resuspended in incubation buffer (100 mM KCl, 10 mM Na-Hepes, pH 7.4, 5 mM MgCl2) and allowed to equilibrate for 10 minutes at room temperature. […] Samples were quenched and affinity purified as described in Haugland, Molecular Probes Handbook of Fluoprescent Probes and Research Chemicals. Aliquots were counted in a scintillation counter following ethanol precipitation (total RNA count) and following binding to streptavidin agarose (product RNA count); the ratio of these two counts is the fraction reacted. Optimizing enzymatic activity: It seemed likely that the original RNA pool from which the BL8-6 ribozyme was derived might not saturate the space of biotin-ligating ribozymes. […]
The background rate of guanosine alkylation by BIE was determined by two independent methods. […] To characterize the functional cores of the two molecules, we analyzed the sequences of active clones isolated from the two mutagenized RNA pools generated from the biotin aptamer and self-alkylating ribozyme sequences. […] Approximately thirty individual RNAs from each of these subcloned pools were sequenced and analyzed to determine which nucleotide positions were conserved and which pairs of nucleotides covaried to maintain Watson-Crick base pairing. […]

Where [16] appears, read: equilibrium gel filtration, 5 mM Mg, read-out: Kd (solution).
[17] abbreviates: auto-thiophosphorylation, 6 ATP-γ-S concentrations.

For the compound `Nc1ncnc2c1ncn2[C@@H]1O[C@H](COP(=O)(O)OP(=O)(O)OP(=O)(O)O)[C@@H](O)[C@H]1O` [ATP], the Kd in assay [1] was 0.7 µM; in assay [2], approximately 14 µM; in [3], more than 500 µM; in assay [4] it was more than 500 µM; in assay [5] (Mg+2 concentration raised from 5 to 20 mM, method not stated, read-out: Kd), 2 µM; in [5] (setting [16]), 6 to 8 µM. Also, the Kd in [6], in assay [7], in assay [9] and in assay [10] was less than 50 µM each time. The “estimated Kd” value in [8] is ~ 250 μM.
For the compound `Nc1ncnc2c1ncn2[C@@H]1O[C@H](CO)[C@@H](O)[C@H]1O` [adenosine], the Kd in assay [5] (setting [16]) lay in the range of 5 to 8 µM.
`Nc1ncnc2c1ncn2[C@@H]1O[C@H](COP(=O)(O)OP(=O)(O)OP(O)(O)=S)[C@@H](O)[C@H]1O` [ATP-γ-S]: the Km was 50 µM and 58 µM in assay [11]; 41 µM and 42 µM in [13] (setting [17]). The kcat in assay [11] was 0.0012 ± 8.3e-05 s⁻¹ and 0.00167 ± 0.000267 s⁻¹; in assay [12] it was 0.0005 ± 1.7e-05 s⁻¹; in assay [13] (setting [17]), 0.00333 ± 0.00033 s⁻¹ and 0.0055 ± 0.00033 s⁻¹; in [13] (self-phosphorylation, approximate value), “approximately 0.3 min^-1”. The kcat/Km in assay [13] (self-phosphorylation) stood at 100 M⁻¹ s⁻¹.
With `O=C(CI)NCCNC(=O)CCCC[C@@H]1SC[C@@H]2NC(=O)N[C@@H]21` [BIE, N-biotinoyl-N'-iodoacetylethylenediamine], the rate of self-biotinylation in assay [14] was 0.001 min⁻¹; in [15] (in the presence of 100 μM BIE), 0.05 min⁻¹. For the same compound, the catalyzed biotinylation rate entry in [15] (time course experiment) is “approximately 8 s^-1 M^-1”.
On to `Nc1ncnc2c1ncn2[C@H]1C[C@H](O)[C@@H](COP(=O)(O)OP(=O)(O)OP(=O)(O)O)O1` [dATP], for which the Kd in assay [5] (not measurable, read-out: Kd (solution)) is more than 1000 µM.
